Data as given in patent US7618816B2, “Metal-binding therapeutic peptides” (Ontherix, Inc., priority 2005, dated 2009).

What was measured:
435 = assay: Uptake of SA-HRP::MBD peptide complexes; assay type: cell-based
Method: (§1) HEK293 kidney cell line and 54 tumor cell lines obtained from the National Cancer Institute and passaged in RPMI1640 cell culture medium supplemented with 10% fetal bovine serum and 10 uM FeCl2. Uptake of streptavidin-horseradish peroxidase (SA-HRP) conjugate and of various SA-HRP::MBD peptide complexes was determined as described (Singh et al. J Biol Chem. 279 (1):477-87 [2004]) using biotinylated MBD9 ([…]) (SEQ ID NO: 10) and MBD21 ([…]) (SEQ ID NO: 4) peptides and SA-HRP. Nuclear and cytoplasmic localization of these proteins was also determined in each case. […] In order to establish the underlying molecular mechanism for this variability, we cross-linked MBD21 peptide to the following cell surface markers at 4 degrees Celsius as previously described (Singh et al. J Biol Chem. 279 (1):477-87 [2004]): transferrin receptor 1, caveolin 1, PCNA, integrins alpha v, 2, 5 and 6, integrins beta 1, 3 and 5. […] Based on the strength of these correlations, it was possible to derive crude predictive formulae for MBD-mediated uptake based on the rate of cross-linking to surface markers. Such predictive formulas could form the basis for a diagnostic procedure to select appropriate targets for MBD-based therapies.

CCRF-SB = assay: Uptake of SA-HRP::MBD peptide complexes; assay type: cell-based
Method: as §1

COLON 26 = assay: Uptake of SA-HRP::MBD peptide complexes; assay type: cell-based
Method: as §1

HEK 293 = assay: Uptake of SA-HRP::MBD peptide complexes; assay type: cell-based
Method: as §1

K562 = assay: Uptake of SA-HRP::MBD peptide complexes; assay type: cell-based
Method: as §1

PAN 02 = assay: Uptake of SA-HRP::MBD peptide complexes; assay type: cell-based
Method: as §1

SR = assay: Uptake of SA-HRP::MBD peptide complexes; assay type: cell-based
Method: as §1

231 = assay: Uptake of SA-HRP::MBD peptide complexes; assay type: cell-based, human
Method: as §1

786-O = assay: Uptake of SA-HRP::MBD peptide complexes; assay type: cell-based, human
Method: as §1

A549 = assay: Uptake of SA-HRP::MBD peptide complexes; assay type: cell-based, human
Method: as §1

A704 = assay: Uptake of SA-HRP::MBD peptide complexes; assay type: cell-based, human
Method: as §1

ACHN = assay: Uptake of SA-HRP::MBD peptide complexes; assay type: cell-based, human
Method: as §1

CCRF-CEM = assay: Uptake of SA-HRP::MBD peptide complexes; assay type: cell-based, human
Method: as §1

CHA-59 = assay: Uptake of SA-HRP::MBD peptide complexes; assay type: cell-based, human
Method: as §1

COLO 205 = assay: Uptake of SA-HRP::MBD peptide complexes; assay type: cell-based, human
Method: as §1

DU-145 = assay: Uptake of SA-HRP::MBD peptide complexes; assay type: cell-based, human
Method: as §1

EKVX = assay: Uptake of SA-HRP::MBD peptide complexes; assay type: cell-based, human
Method: as §1

HCT-15 = assay: Uptake of SA-HRP::MBD peptide complexes; assay type: cell-based, human
Method: as §1

HOP 62 = assay: Uptake of SA-HRP::MBD peptide complexes; assay type: cell-based, human
Method: as §1

HOP 92 = assay: Uptake of SA-HRP::MBD peptide complexes; assay type: cell-based, human
Method: as §1

HS 913T = assay: Uptake of SA-HRP::MBD peptide complexes; assay type: cell-based, human
Method: as §1

HS-578T = assay: Uptake of SA-HRP::MBD peptide complexes; assay type: cell-based, human
Method: as §1

IGR-OV1 = assay: Uptake of SA-HRP::MBD peptide complexes; assay type: cell-based, human
Method: as §1

Lewis Lung = assay: Uptake of SA-HRP::MBD peptide complexes; assay type: cell-based, human
Method: as §1

MOLT4 = assay: Uptake of SA-HRP::MBD peptide complexes; assay type: cell-based, human
Method: as §1

MX-1 = assay: Uptake of SA-HRP::MBD peptide complexes; assay type: cell-based, human
Method: as §1

NHI-H322M = assay: Uptake of SA-HRP::MBD peptide complexes; assay type: cell-based, human
Method: as §1

OVCAR-5 = assay: Uptake of SA-HRP::MBD peptide complexes; assay type: cell-based, human
Method: as §1

RPMI 8226 = assay: Uptake of SA-HRP::MBD peptide complexes; assay type: cell-based, human
Method: as §1

SHP-77 = assay: Uptake of SA-HRP::MBD peptide complexes; assay type: cell-based, human
Method: as §1

SN12C = assay: Uptake of SA-HRP::MBD peptide complexes; assay type: cell-based, human
Method: as §1

WIDR = assay: Uptake of SA-HRP::MBD peptide complexes; assay type: cell-based, human
Method: as §1

54 tumor cell lines = assay: Uptake of SA-HRP::MBD peptide complexes, median of the survey; assay type: cell-based; conditions: median over tumor cell lines
Method: as §1

KKGFYKKKKQCRPSKGRKRGFCWNGRK [MBD9]
SA-HRP uptake, Cyt. (435; 435, cytoplasmic): 8.6 ng | SA-HRP uptake, Nuc. (435; 435, nuclear): 2.7 ng | SA-HRP uptake, Cyt. (CCRF-SB; cytoplasmic): 2.6 ng | SA-HRP uptake, Nuc. (CCRF-SB; nuclear): 0.6 ng | SA-HRP uptake, Cyt. (COLON 26; COLON 26, cytoplasmic): 11.3 ng | SA-HRP uptake, Nuc. (COLON 26; COLON 26, nuclear): 2.3 ng | SA-HRP uptake, Cyt. (HEK 293; HEK 293, cytoplasmic): 20.2 ng | SA-HRP uptake, Nuc. (HEK 293; HEK 293, nuclear): 20.1 ng | SA-HRP uptake, Cyt. (K562; K562, cytoplasmic): 2.6 ng | SA-HRP uptake, Nuc. (K562; K562, nuclear): 1.3 ng | SA-HRP uptake, Cyt. (PAN 02; PAN 02, cytoplasmic): 25.8 ng | SA-HRP uptake, Nuc. (PAN 02; PAN 02, nuclear): 7.0 ng | SA-HRP uptake, Cyt. (SR; cytoplasmic): 24.4 ng | SA-HRP uptake, Nuc. (SR; nuclear): 0.0 ng | SA-HRP uptake, Cyt. (231; 231, cytoplasmic): 9.6 ng | SA-HRP uptake, Nuc. (231; 231, nuclear): 2.6 ng | SA-HRP uptake, Cyt. (786-O; cytoplasmic): 2.9 ng | SA-HRP uptake, Nuc. (786-O; nuclear): 3.9 ng | SA-HRP uptake, Cyt. (A549; A549, cytoplasmic): 9.6 ng | SA-HRP uptake, Nuc. (A549; A549, nuclear): 3.5 ng | SA-HRP uptake, Cyt. (A704; A704, cytoplasmic): 10.9 ng | SA-HRP uptake, Nuc. (A704; A704, nuclear): 1.8 ng | SA-HRP uptake, Cyt. (ACHN; cytoplasmic): 9.6 ng | SA-HRP uptake, Nuc. (ACHN; nuclear): 2.9 ng | SA-HRP uptake, Cyt. (CCRF-CEM; cytoplasmic): 46.2 ng | SA-HRP uptake, Nuc. (CCRF-CEM; nuclear): 1.8 ng | SA-HRP uptake, Cyt. (CHA-59; CHA-59, cytoplasmic): 24.7 ng | SA-HRP uptake, Nuc. (CHA-59; CHA-59, nuclear): 9.7 ng | SA-HRP uptake, Cyt. (COLO 205; COLO 205, cytoplasmic): 2.9 ng | SA-HRP uptake, Nuc. (COLO 205; COLO 205, nuclear): 0.9 ng | SA-HRP uptake, Cyt. (DU-145; DU-145, cytoplasmic): 3.1 ng | SA-HRP uptake, Nuc. (DU-145; DU-145, nuclear): <0.04 ng | SA-HRP uptake, Cyt. (EKVX; cytoplasmic): 7.2 ng | SA-HRP uptake, Nuc. (EKVX; nuclear): 4.2 ng | SA-HRP uptake, Cyt. (HCT-15; HCT-15, cytoplasmic): 4.0 ng | SA-HRP uptake, Nuc. (HCT-15; HCT-15, nuclear): 0.8 ng | SA-HRP uptake, Cyt. (HOP 62; HOP 62, cytoplasmic): 12.0 ng | SA-HRP uptake, Nuc. (HOP 62; HOP 62, nuclear): 0.9 ng | SA-HRP uptake, Cyt. (HOP 92; HOP 92, cytoplasmic): 2.5 ng | SA-HRP uptake, Nuc. (HOP 92; HOP 92, nuclear): 1.6 ng | SA-HRP uptake, Cyt. (HS 913T; cytoplasmic): 3.4 ng | SA-HRP uptake, Nuc. (HS 913T; nuclear): 1.1 ng | SA-HRP uptake, Cyt. (HS-578T; cytoplasmic): 6.8 ng | SA-HRP uptake, Nuc. (HS-578T; nuclear): 2.3 ng | SA-HRP uptake, Cyt. (IGR-OV1; IGR-OV1, cytoplasmic): 7.0 ng | SA-HRP uptake, Nuc. (IGR-OV1; IGR-OV1, nuclear): 2.6 ng | SA-HRP uptake, Cyt. (Lewis Lung; cytoplasmic): 8.6 ng | SA-HRP uptake, Nuc. (Lewis Lung; nuclear): 7.2 ng | SA-HRP uptake, Cyt. (MOLT4; MOLT4, cytoplasmic): 12.7 ng | SA-HRP uptake, Nuc. (MOLT4; MOLT4, nuclear): 0.0 ng | SA-HRP uptake, Cyt. (MX-1; MX-1, cytoplasmic): 10.8 ng | SA-HRP uptake, Nuc. (MX-1; MX-1, nuclear): 3.1 ng | SA-HRP uptake, Cyt. (NHI-H322M; cytoplasmic): 5.2 ng | SA-HRP uptake, Nuc. (NHI-H322M; nuclear): 5.0 ng | SA-HRP uptake, Cyt. (OVCAR-5; OVCAR-5, cytoplasmic): 2.7 ng | SA-HRP uptake, Nuc. (OVCAR-5; OVCAR-5, nuclear): 1.2 ng | SA-HRP uptake, Cyt. (RPMI 8226; RPMI 8226, cytoplasmic): 6.5 ng | SA-HRP uptake, Nuc. (RPMI 8226; RPMI 8226, nuclear): 0.0 ng | SA-HRP uptake, Cyt. (SHP-77; SHP-77, cytoplasmic): 12.8 ng | SA-HRP uptake, Nuc. (SHP-77; SHP-77, nuclear): 5.9 ng | SA-HRP uptake, Cyt. (SN12C; cytoplasmic): 10.6 ng | SA-HRP uptake, Nuc. (SN12C; nuclear): 3.5 ng | SA-HRP uptake, Cyt. (WIDR; cytoplasmic): 3.4 ng | SA-HRP uptake, Nuc. (WIDR; nuclear): 0.7 ng | SA-HRP uptake, Cyt. (ng), Median (54 tumor cell lines; cytoplasmic): 7.4 ng | SA-HRP uptake, Nuc. (ng), Median (54 tumor cell lines; nuclear): 1.8 ng
